Reference: patent publication US9359308B2, “Pyrazine kinase inhibitors” (Portola Pharmaceuticals, Inc., priority 2011, dated 2016)

molecular target: T1, full length active recombinant SYK enzyme (Homo sapiens, UniProt P43405); assay: Inhibition of Syk tyrosine phosphorylation activity (LANCE TR-FRET kinase assay); format: biochemical; conditions: activity in the Syk assays, class symbols
T1 construct: full length active recombinant SYK enzyme (Millipore, Calif.); purchased Millipore
How it was run: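 1 nM full-length active recombinant SYK phosphorylated 550 nM biotin-DEEDYESP-OH with 100 μM ATP in 50 mM Tris pH 7.5, 5 mM MgCl2, 1 mM DTT and 3% DMSO for 1 h at room temperature. After EDTA quench, Eu-anti-phosphotyrosine/SA-APC TR-FRET was read after 1 h. IC50s came from non-linear regression.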

SMILES	IC50
CC[C@@H](Nc1cnc(C(N)=O)c(Nc2ccc(S(=O)(=O)N(C)C)cc2)n1)C(N)=O [Example 170, (R)-5-(1-amino-1-oxobutan-2-ylamino)-3-(4-(N,N-dimethylsulfamoyl)phenylamino)pyrazine-2-carboxamide]	10 to 100 nM
COc1ccc(Nc2nc(N[C@H](CC3CC3)C(N)=O)cnc2C(N)=O)cc1OC [Example 171, (R)-5-(1-amino-3-cyclopropyl-1-oxopropan-2-ylamino)-3-(3,4-dimethoxyphenylamino)pyrazine-2-carboxamide]	1 to 10 nM
Cc1ccc(Nc2nc(N[C@H](CC3CC3)C(N)=O)cnc2C(N)=O)cc1C [Example 172, (R)-5-(1-amino-3-cyclopropyl-1-oxopropan-2-ylamino)-3-(3,4-dimethylphenylamino)pyrazine-2-carboxamide]	1 to 10 nM
CC[C@@H](Nc1cnc(C(N)=O)c(Nc2cnn(-c3ccccc3)c2)n1)C(N)=O [Example 173, (R)-5-(1-amino-1-oxobutan-2-ylamino)-3-(1-phenyl-1H-pyrazol-4-ylamino)pyrazine-2-carboxamide]	10 to 100 nM
Cc1ccc(Nc2nc(N[C@H](CC3CC3)C(N)=O)cnc2C(N)=O)cc1 [Example 174, (R)-5-(1-amino-3-cyclopropyl-1-oxopropan-2-ylamino)-3-(p-tolylamino)pyrazine-2-carboxamide]	10 to 100 nM
NC(=O)c1ncc(NC2(C(N)=O)CC2)nc1Nc1cnc2ccc(F)cc2c1 [Example 175, 5-(1-carbamoylcyclopropylamino)-3-(6-fluoroquinolin-3-ylamino)pyrazine-2-carboxamide]	1 to 10 nM
NC(=O)c1ncc(NC[C@@H](N)CC(F)F)nc1Nc1cccc(-c2ncccn2)c1 [Example 176, (S)-5-(2-amino-4,4-difluorobutylamino)-3-(3-(pyrimidin-2-yl)phenylamino)pyrazine-2-carboxamide]	10 to 100 nM
CC[C@@H](Nc1cnc(C(N)=O)c(Nc2cncc(C)c2)n1)C(N)=O [Example 177, (R)-5-(1-amino-1-oxobutan-2-ylamino)-3-(5-methylpyridin-3-ylamino)pyrazine-2-carboxamide]	10 to 100 nM
CC[C@@H](Nc1cnc(C(N)=O)c(Nc2ccnc(C)c2)n1)C(N)=O [Example 178, (R)-5-(1-amino-1-oxobutan-2-ylamino)-3-(2-methylpyridin-4-ylamino)pyrazine-2-carboxamide]	10 to 100 nM
CC[C@@H](Nc1cnc(C(N)=O)c(Nc2cc(C)nc(C)c2)n1)C(N)=O [Example 179, (R)-5-(1-amino-1-oxobutan-2-ylamino)-3-(2,6-dimethylpyridin-4-ylamino)pyrazine-2-carboxamide]	10 to 100 nM
CC(C)C[C@@H](Nc1cnc(C(N)=O)c(Nc2ccn(C)n2)n1)C(N)=O [Example 180, (R)-5-(1-amino-4-methyl-1-oxopentan-2-ylamino)-3-(1-methyl-1H-pyrazol-3-ylamino)pyrazine-2-carboxamide]	> 1000 nM
CC[C@@H](Nc1cnc(C(N)=O)c(Nc2cccnc2)n1)C(N)=O [Example 181, (R)-5-(1-amino-1-oxobutan-2-ylamino)-3-(pyridin-3-ylamino)pyrazine-2-carboxamide]	10 to 100 nM
CC[C@@H](Nc1cnc(C(N)=O)c(Nc2cncc(F)c2)n1)C(N)=O [Example 182, (R)-5-(1-amino-1-oxobutan-2-ylamino)-3-(5-fluoropyridin-3-ylamino)pyrazine-2-carboxamide]	10 to 100 nM
Cc1cccc(Nc2nc(N[C@H]3CC[C@@H](N)CC3)cnc2C(N)=O)c1 [Example 183, 5-((1s,4s)-4-aminocyclohexylamino)-3-(m-tolylamino)pyrazine-2-carboxamide]	10 to 100 nM
NC(=O)c1ncc(N[C@H]2CC[C@@H](N)CC2)nc1Nc1cccc(-c2ncccn2)c1 [Example 184, 5-((1s,4s)-4-aminocyclohexylamino)-3-(3-(pyrimidin-2-yl)phenylamino)pyrazine-2-carboxamide]	1 to 10 nM
